Assay results published in the supplement of paper PMC10307832.

How the values were obtained:
Test in all cases: relative viability (nuclei count vs DMSO), 5 days (fraction); higher = more cells survive
HCC-366 = tested on: HCC-366
Outline: (§1)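 After 5 days of treatment, lung cancer cells in 1536-well plates were fixed and stained in a single step (final 0.05% Triton X-100, 1% formaldehyde, 1 ug/ml Hoechst) and their nuclei counted on 4× images. Treatment had been applied by pin tool the day after seeding as one drug alone or as a fixed anchor-drug dose with five library-drug doses (not always all listed) in √10 steps. Relative viability is the nuclei count of treated wells divided by that of vehicle wells, and values are medians of duplicate plates.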

NCI-H661 = tested on: NCI-H661
Outline: as §1

HARA = tested on: HARA
Outline: as §1

NCI-H596 = tested on: NCI-H596
Outline: as §1

NCI-H1792 = tested on: NCI-H1792
Outline: as §1

NCI-H1395 = tested on: NCI-H1395
Outline: as §1

NCI-H1734 = tested on: NCI-H1734
Outline: as §1

NCI-H2405 = tested on: NCI-H2405
Outline: as §1

NCI-H2170 = tested on: NCI-H2170
Outline: as §1

LOU-NH91 = tested on: LOU-NH91
Outline: as §1

NCI-H647 = tested on: NCI-H647
Outline: as §1

NCI-H2342 = tested on: NCI-H2342
Outline: as §1

NCI-H2087 = tested on: NCI-H2087
Outline: as §1

LC-2-ad = tested on: LC-2-ad
Outline: as §1

SK-LU-1 = tested on: SK-LU-1
Outline: as §1

HCC-827 = tested on: HCC-827
Outline: as §1

BEN = tested on: BEN
Outline: as §1

EKVX = tested on: EKVX
Outline: as §1

NCI-H1437 = tested on: NCI-H1437
Outline: as §1

SK-MES-1 = tested on: SK-MES-1
Outline: as §1

NCI-H1355 = tested on: NCI-H1355
Outline: as §1

NCI-H2009 = tested on: NCI-H2009
Outline: as §1

Compound: CC1(C)CCC(c2ccc(Cl)cc2)=C(CN2CCN(c3ccc(C(=O)NS(=O)(=O)c4ccc(N[C@H](CCN5CCOCC5)CSc5ccccc5)c(S(=O)(=O)C(F)(F)F)c4)cc3)CC2)C1 [Navitoclax] + Nc1ncn([C@H]2C[C@H](O)[C@@H](CO)O2)c(=O)n1 [Decitabine] (partner 2 µM)
- relative viability (HCC-366; first compound 0.005 µM): 0.34
- relative viability (HCC-366; first compound 0.01581 µM): 0.4
- relative viability (HCC-366; first compound 0.1581 µM): 0.332
- relative viability (HCC-366; first compound 0.5 µM): 0.365
- relative viability (NCI-H661; first compound 0.005 µM): 0.556
- relative viability (NCI-H661; first compound 0.01581 µM): 0.595
- relative viability (NCI-H661; first compound 0.05 µM): 0.545
- relative viability (NCI-H661; first compound 0.1581 µM): 0.547
- relative viability (NCI-H661; first compound 0.5 µM): 0.567
- relative viability (HARA; first compound 0.005 µM): 0.463
- relative viability (HARA; first compound 0.01581 µM): 0.736
- relative viability (HARA; first compound 0.05 µM): 0.414
- relative viability (HARA; first compound 0.1581 µM): 0.622
- relative viability (HARA; first compound 0.5 µM): 0.466
- relative viability (NCI-H596; first compound 0.005 µM): 1.04
- relative viability (NCI-H596; first compound 0.01581 µM): 0.951
- relative viability (NCI-H596; first compound 0.05 µM): 0.786
- relative viability (NCI-H596; first compound 0.1581 µM): 0.998
- relative viability (NCI-H596; first compound 0.5 µM): 1.01
- relative viability (NCI-H1792; first compound 0.005 µM): 0.488
- relative viability (NCI-H1792; first compound 0.01581 µM): 0.644
- relative viability (NCI-H1792; first compound 0.1581 µM): 0.525
- relative viability (NCI-H1792; first compound 0.5 µM): 0.447
- relative viability (NCI-H1395; first compound 0.005 µM): 0.706
- relative viability (NCI-H1395; first compound 0.01581 µM): 0.701
- relative viability (NCI-H1395; first compound 0.05 µM): 0.724
- relative viability (NCI-H1395; first compound 0.1581 µM): 0.713
- relative viability (NCI-H1395; first compound 0.5 µM): 0.699
- relative viability (NCI-H1734; first compound 0.005 µM): 0.51
- relative viability (NCI-H1734; first compound 0.01581 µM): 0.512
- relative viability (NCI-H1734; first compound 0.1581 µM): 0.5
- relative viability (NCI-H1734; first compound 0.5 µM): 0.465
- relative viability (NCI-H2405; first compound 0.005 µM): 0.75
- relative viability (NCI-H2405; first compound 0.01581 µM): 0.812
- relative viability (NCI-H2405; first compound 0.05 µM): 0.885
- relative viability (NCI-H2405; first compound 0.1581 µM): 0.717
- relative viability (NCI-H2405; first compound 0.5 µM): 0.771
- relative viability (NCI-H2170; first compound 0.005 µM): 0.473
- relative viability (NCI-H2170; first compound 0.01581 µM): 0.484
- relative viability (NCI-H2170; first compound 0.05 µM): 0.475
- relative viability (NCI-H2170; first compound 0.1581 µM): 0.414
- relative viability (NCI-H2170; first compound 0.5 µM): 0.434
- relative viability (LOU-NH91; first compound 0.005 µM): 0.798
- relative viability (LOU-NH91; first compound 0.01581 µM): 0.88
- relative viability (LOU-NH91; first compound 0.05 µM): 0.79
- relative viability (LOU-NH91; first compound 0.1581 µM): 0.711
- relative viability (LOU-NH91; first compound 0.5 µM): 0.391
- relative viability (NCI-H647; first compound 0.005 µM): 0.403
- relative viability (NCI-H647; first compound 0.01581 µM): 0.413
- relative viability (NCI-H647; first compound 0.05 µM): 0.409
- relative viability (NCI-H647; first compound 0.1581 µM): 0.275
- relative viability (NCI-H647; first compound 0.5 µM): 0.32
- relative viability (NCI-H2342; first compound 0.005 µM): 0.799
- relative viability (NCI-H2342; first compound 0.01581 µM): 0.764
- relative viability (NCI-H2342; first compound 0.05 µM): 0.653
- relative viability (NCI-H2342; first compound 0.1581 µM): 0.679
- relative viability (NCI-H2342; first compound 0.5 µM): 0.713
- relative viability (NCI-H2087; first compound 0.005 µM): 0.277
- relative viability (NCI-H2087; first compound 0.01581 µM): 0.314
- relative viability (NCI-H2087; first compound 0.1581 µM): 0.231
- relative viability (NCI-H2087; first compound 0.5 µM): 0.266
- relative viability (LC-2-ad; first compound 0.005 µM): 0.793
- relative viability (LC-2-ad; first compound 0.01581 µM): 0.72
- relative viability (LC-2-ad; first compound 0.05 µM): 0.673
- relative viability (LC-2-ad; first compound 0.1581 µM): 0.701
- relative viability (LC-2-ad; first compound 0.5 µM): 0.774
- relative viability (SK-LU-1; first compound 0.005 µM): 0.577
- relative viability (SK-LU-1; first compound 0.01581 µM): 0.577
- relative viability (SK-LU-1; first compound 0.05 µM): 0.389
- relative viability (SK-LU-1; first compound 0.1581 µM): 0.609
- relative viability (SK-LU-1; first compound 0.5 µM): 0.469
- relative viability (HCC-827; first compound 0.005 µM): 0.364
- relative viability (HCC-827; first compound 0.01581 µM): 0.325
- relative viability (HCC-827; first compound 0.05 µM): 0.314
- relative viability (HCC-827; first compound 0.1581 µM): 0.327
- relative viability (HCC-827; first compound 0.5 µM): 0.31
- relative viability (BEN; first compound 0.005 µM): 0.784
- relative viability (BEN; first compound 0.01581 µM): 0.803
- relative viability (BEN; first compound 0.05 µM): 0.734
- relative viability (BEN; first compound 0.1581 µM): 0.712
- relative viability (BEN; first compound 0.5 µM): 0.443
- relative viability (EKVX; first compound 0.005 µM): 0.372
- relative viability (EKVX; first compound 0.01581 µM): 0.428
- relative viability (EKVX; first compound 0.05 µM): 0.361
- relative viability (EKVX; first compound 0.1581 µM): 0.285
- relative viability (EKVX; first compound 0.5 µM): 0.343
- relative viability (NCI-H1437; first compound 0.005 µM): 0.549
- relative viability (NCI-H1437; first compound 0.01581 µM): 0.547
- relative viability (NCI-H1437; first compound 0.05 µM): 0.619
- relative viability (NCI-H1437; first compound 0.1581 µM): 0.519
- relative viability (NCI-H1437; first compound 0.5 µM): 0.581
- relative viability (SK-MES-1; first compound 0.005 µM): 0.371
- relative viability (SK-MES-1; first compound 0.01581 µM): 0.432
- relative viability (SK-MES-1; first compound 0.05 µM): 0.349
- relative viability (SK-MES-1; first compound 0.1581 µM): 0.344
- relative viability (SK-MES-1; first compound 0.5 µM): 0.372
- relative viability (NCI-H1355; first compound 0.005 µM): 0.338
- relative viability (NCI-H1355; first compound 0.01581 µM): 0.372
- relative viability (NCI-H1355; first compound 0.05 µM): 0.369
- relative viability (NCI-H1355; first compound 0.1581 µM): 0.355
- relative viability (NCI-H1355; first compound 0.5 µM): 0.347
- relative viability (NCI-H2009; first compound 0.005 µM): 0.412
- relative viability (NCI-H2009; first compound 0.01581 µM): 0.441
- relative viability (NCI-H2009; first compound 0.05 µM): 0.382
- relative viability (NCI-H2009; first compound 0.1581 µM): 0.342
- relative viability (NCI-H2009; first compound 0.5 µM): 0.295
